From a melting point compilation (Tetko et al.; mined from patent text by program, amines drawn as free bases though some values may be those of a salt)
Counter-ions that a name gives are not always drawn. Residues, ends and D or L forms follow the SMILES beside them. *: point of attachment. Tfa = O=C(C(F)(F)F)*

In the case of `CCC1(CC)CC(c2ccc(F)cc2)=C(c2ccc(S(N)(=O)=O)cc2)C1`, the melting point is reported as 101 °C.
`CC(C)(C)c1ccc(Cl)c(C(=O)O)c1` gave a melting point of 99 to 103 °C.
In the case of `CCCCOc1c(CNC(=O)OC(C)(C)C)n(CC2CC2)c(=O)c2ccc(C=O)cc12`, the melting point is reported as 151 to 152 °C.
`COc1cccc(-c2nn(Cc3oc4ccccc4c(=O)c3-c3cccc(F)c3)c3ncnc(N)c23)c1` showed a melting point of 175 to 178 °C.
`CCOCc1nc2c(N)nc3ccccc3c2n1CCCC(N)=O` gave a melting point of 233 to 235 °C.
For `CCN1c2ncc(CCc3ccncc3)cc2C(=O)N(C)c2ccc(F)nc21`, the melting point was 109 to 111 °C.
`COC(=O)C(Cc1ccccc1)NC(=O)C(CC(=O)O)NC(=O)C(F)(F)F` (stereo not drawn) (Tfa-Asp-Phe-OMe; configuration not given here) showed a melting point of 150 to 151 °C.
In the case of `O=c1[nH][nH]c(=O)c2c(O)c3ccc(Br)cc3nc12`, the melting point is reported as 278 °C.
Work on `Nc1ccc2c(c1)C(=O)N(CCO)C2=O` yielded a melting point of 171 to 173 °C.
Compound `Nc1c(C(=O)c2ccccc2OCc2ccccc2)oc2ccc(Cl)cc12` has a melting point of 158 to 160 °C.
For `Cc1ccc2c(c1)C(N(CCCCC(=O)O)S(C)(=O)=O)CC(C)(C)O2` (stereo not given), the melting point was 190 to 195 °C.
In the case of `COC(=O)c1ccccc1Oc1ccc(C)cc1`, the melting point is reported as 31 to 34 °C.
For `CCOC(=O)C(=O)c1cc(C)c(C(=O)c2ccccc2[N+](=O)[O-])n1C`, the melting point was 138 to 140 °C.
In the case of `CC(C)(C)N1CCc2c(C(=O)O)nc3c(C#N)cnn3c21`, the melting point is reported as 230 to 232 °C.
For `Cc1c(C(=O)O)cnn1-c1nc(-c2cccc(C(F)(F)F)c2)cs1`, the melting point was 227 to 228 °C.
With `CNC(=O)c1ccc(-c2cccc3nc(Nc4cc(OC)c(OC)c(OC)c4)oc23)cc1` the melting point was 258 to 259 °C.
`COc1cc(C(=O)NS(=O)(=O)c2ccccc2)ccc1CN1CCOc2ccc(NC(=O)CC3CCCC3)cc21` gave a melting point of 190 to 192 °C.
`COc1cc2cc(c1Cl)N(C)C(=O)CC(OC(=O)C(C)N(C)C(=O)C(C)C)C1(C)OC1C(C)C1CC(O)(NC(=O)O1)C(OC)C=CC=C(C)C2OC` (stereo not given) showed a melting point of 176 to 179 °C.
`CN1CCc2c(Cl)ccc(CO)c2CC1` showed a melting point of 136 to 140 °C.
For `CCOC(=O)N(CC(=O)O)C(=O)c1c(Cl)ccc2c(C(F)(F)F)c(OC)ccc12`, the melting point was 144 to 146 °C.
For `c1cc2c3c(c1)NCC3CCC2` (stereo not given), the melting point was 58 to 59 °C.
With `CCCC(O)(CCC)c1ccc(C2=CC=CC(OCc3ccc(CO)c(CO)c3)C2(C)C)cc1` (stereo not given) the melting point was 118 to 120 °C.
`Cc1cc(-c2cc(C(F)(F)F)n3ncc(-c4ccncc4)c3n2)ccc1C(F)(F)F` showed a melting point of 227 °C.
In the case of `CN(C)S(=O)(=O)CCc1ccc2[nH]cc(CC#N)c2c1`, the melting point is reported as 105 to 107 °C.
With `CCCCc1ncc(/C=C/CC(=O)O)n1Cc1ccccc1Cl` the melting point was 135 to 137 °C.
Work on `CCOC(=O)c1ccc(-c2nc(COc3ccc(C=O)cc3OC)c(C)o2)s1` yielded a melting point of 155 to 156 °C.
`CCCCCNC(=O)N(CCCc1ccncc1)CCC12CC3CC(CC(C3)C1)C2` showed a melting point of 47 to 50 °C.
`CC(C)C[C@H](CC(N)=O)CC(=O)O` showed a melting point of 132 to 135 °C.
`CCCNCc1ccc(-c2cc3ncnc(Nc4ccc5[nH]ccc5c4)c3s2)cc1` gave a melting point of 190 to 205 °C.
In the case of `COc1cc2c(cc1OC)CCC=C2`, the melting point is reported as 90.5 to 91 °C.
With `CN1NCc2c(Cl)ncnc21` the melting point was 97 to 99 °C.
`NC(=O)CCCCCCCCCCCNC(N)=NC(=O)c1nc(Cl)c(N)nc1N` showed a melting point of 192 to 194 °C.
Compound `CC(CO)C1CCC2C3CCC4=CC(=O)CCC4(C)C3CCC12C` (stereo not given) has a melting point of 140 to 141 °C.
Work on `CNC(=S)NS(=O)(=O)c1cc2c(cc1OC)OCCC2CNC(=O)c1cc(Cl)ccc1OC` (single isomer, unassigned; (+)) yielded a melting point of 201 °C.
For `CCc1nn2c(-c3cccc(OC)c3)ccnc2c1C#N`, the melting point was 118 to 119 °C.
Compound `CCN(CC)CCC(=O)Nc1ccc([N+](=O)[O-])cc1` has a melting point of 86 to 88 °C.
`CC(C)n1nc(-c2c(-c3ccccc3)nn3ccc(OCC(=O)Nc4ccccc4)cc23)ccc1=O` gave a melting point of 208 to 209 °C.
Work on `CC(=O)C=Cc1ccc2c(c1)OCCO2` yielded a melting point of 80 °C.
For `CN(C)CCOc1cc(CCCOc2nn(Cc3ccccc3)cc2CC(=O)O)n(Cc2ccc(Cl)cc2Cl)n1`, the melting point was 78.3 to 80.8 °C.
`COc1ccc(-c2nc(C)n(CCC(C)(C)NCC(O)c3ccc(O)c(CO)c3)n2)cc1` (stereo not given) gave a melting point of 110 to 116 °C.
With `COC(=O)c1ccc2c(c1)SCCC2NC(=O)OCc1ccccc1` (stereo not given) the melting point was 128 to 130 °C.
Work on `CC12C=CCC1C1CC(O)c3cc(O)ccc3C1CC2` (stereo not given) yielded a melting point of 150 to 157 °C.
In the case of `COc1ccc2c(c1)C(O)(CCNC(C)=O)CCC2` (stereo not given), the melting point is reported as 106 to 109 °C.
`CN(C)CCCOc1cccc(CC(=O)c2cccc(OCCCN(C)C)c2)c1` gave a melting point of 102 to 105 °C.
`Cc1cc(-c2ccccc2)n2nc(SCc3ccccc3)nc2n1` showed a melting point of 110 to 111 °C.
Work on `COc1cc(OC)c2c(c1)N1CCCCC1CC2=O` (stereo not given) yielded a melting point of 91 to 94 °C.
Work on `O=C1NC(C(=O)NCCO[N+](=O)[O-])C(c2ccco2)S1` (stereo not given) yielded a melting point of 117 to 118 °C.
In the case of `O=C1C[C@H]2CCN(Cc3ccccc3)C[C@H]2c2ccc(F)cc21` (relative stereo), the melting point is reported as > 220 °C.
Work on `CCOC(=O)C(=O)Nc1ncccn1` yielded a melting point of 96 to 99 °C.
With `Clc1cc2cc[nH]c2c(Cl)c1Cl` the melting point was 97.5 to 98 °C.
With `Cc1ccc(C(=O)Cn2cc(Cl)cnc2=O)c(C)c1` the melting point was 221 to 222 °C.
Compound `O=c1c2ccccc2oc2cc(OCCO)c(Cl)cc12` has a melting point of 153 to 156 °C.
Work on `Cc1nc2c(-c3cccc(N4CCN(C5CCN(C)CC5)CC4)c3)cnn2c(N)c1-c1cccc(Cl)c1` yielded a melting point of 180 to 185 °C.
In the case of `CCOC(=O)c1ccc(OCCCCCCc2cccc(OCc3ccccc3)c2OCc2ccccc2)cc1`, the melting point is reported as 63 to 65 °C.
For `O=C1Cc2cccc(Oc3ccccc3F)c2O1`, the melting point was 82 to 84 °C.
In the case of `CN(C)c1ccc2c(c1)C(=O)C(n1ccnc1)CC2` (stereo not given), the melting point is reported as 160 to 162 °C.
`CC(C)(C)C1=C(c2cc3cc(O[Si](C)(C)C(C)(C)C)ccc3s2)OCC1(C)C` showed a melting point of 88 to 89 °C.
Work on `CCCCCCOc1ccc(NC(=O)c2cnn(C)c2C)cc1C#N` yielded a melting point of 150 to 151 °C.
Compound `N#Cc1c[nH]c2ccccc2c1=O` has a melting point of 290 to 300 °C.
With `O=C(NCC12CC3CC(CC(C3)C1)C2)c1c(Cl)ccc2nc(N3CCC(C(=O)NO)CC3)ccc12` the melting point was 189 to 196 °C.
With `CC1C(=O)N(c2ccc3c(c2)OCO3)C(=S)N1c1ccc(Oc2ccccc2)cc1` (stereo not given) the melting point was 185 °C.
In the case of `CC1OC(n2cnc3c(S(N)(=O)=O)nc(N)nc32)C(O)C1O` (stereo not given), the melting point is reported as > 90 °C.
In the case of `CCCCc1ncc(/C=C(\Cc2ccc(N(C)C)cc2)C(=O)O)n1Cc1ccccc1Cl`, the melting point is reported as 171 to 172 °C.
Work on `COC(=O)C(C)NC(=O)Cc1cc(C)c(C(=O)c2ccc(Cl)cc2)n1C` (stereo not given) yielded a melting point of 163 to 165 °C.
Compound `CCOC(=O)c1cnn(-c2cccc(N(C)C)n2)c1S(N)(=O)=O` has a melting point of 157 to 160 °C.
`CCOC(=O)C(SC)=C(O)C1C(C(=O)O)C1(C)C` (stereo not given) showed a melting point of 114 °C.
In the case of `Cn1c(=O)c2ccccc2n(C)c1=S`, the melting point is reported as 184 °C.
In the case of `O=C(Nc1cccc(Cc2nnn[nH]2)c1)C(F)(F)C(F)(F)C(F)(F)C(F)(F)C(F)(F)C(F)(F)C(F)(F)F`, the melting point is reported as 163 to 166 °C.
`OC1CCOc2ccc(C=Cc3nc4cc(F)ccc4s3)cc21` (stereo not given) showed a melting point of 184 to 186 °C.
Work on `CNC(=S)NCCSCc1ncccc1N` yielded a melting point of 99.5 °C.
Work on `CCn1c(=O)c2c(nc(/C=C/c3cccc(OC(C)=O)c3OC(C)=O)n2C)n(CC)c1=O` yielded a melting point of 228 to 230 °C.
In the case of `CC(=O)[C@H]1[C@H](C(=O)O)C1(C)C` (relative stereo), the melting point is reported as 111 °C.
With `COc1cccc2c(Nc3ccccc3C)c(C(=O)CCC(=O)O)cnc12` the melting point was 263 to 265 °C.
`COCc1ccc2c(c1S(=O)(=O)NC(=O)Nc1nc(C)cc(OC)n1)S(=O)(=O)C(C)C2` (stereo not given) gave a melting point of 215 to 216 °C.
Compound `COc1ccc(CN2Cc3cncn3C(c3ccc(-c4ccsc4)cc3)C2=O)cc1` (stereo not given) has a melting point of 162 to 164 °C.
`CCc1c(C(=O)O)oc2ccc(Br)cc12` gave a melting point of 240 to 242 °C.
Compound `CCN(CC)CCC(=O)O` has a melting point of 65 to 67 °C.
Compound `O=C(O)COc1nnc(C(Cl)Cl)s1` has a melting point of 114 °C.
`CN(C)C(=O)Cn1c(-c2cccc(Br)c2)nc2cccnc21` gave a melting point of 144 to 146 °C.
`O=C(N[C@H]1CC[C@H](CCN2CCN(c3nccc4c3OCC4)CC2)CC1)C1CCC1` gave a melting point of 186 °C.
With `C[C@H](C(=O)NC[C@H](COC(=O)C(C)(C)C)Cc1ccccc1)c1ccc(NS(C)(=O)=O)c(F)c1` the melting point was 40 to 42 °C.
`COc1cc2c(cc1OC)CC(NC(=O)C1CCCN1C(C)=O)CC2` (stereo not given) gave a melting point of 63 to 65 °C.
Compound `CC(C)(CS(C)(=O)=O)NC(=O)c1c(NC(=O)c2cc(C(F)(F)F)nn2-c2ncccc2Cl)c(Cl)cc2cn[nH]c12` has a melting point of 173 to 176 °C.
In the case of `CC(=O)Nc1cc(F)ccc1C(=O)NCCN1CCC2(CC1)C(=O)NCN2c1ccc(F)cc1`, the melting point is reported as 195 °C.
Compound `COc1cc(-c2nc3cc(F)ccc3s2)ccc1OC(=O)c1cccc([N+](=O)[O-])c1` has a melting point of 190 °C.
In the case of `COc1ccc(C#N)c2c1OC1(COCC1OC)C2` (stereo not given), the melting point is reported as 151 to 156 °C.
Compound `Clc1ncnc2cc3c(cc12)OCCO3` has a melting point of 169 to 174 °C.
For `CCOC(=O)C(Cl)=NO`, the melting point was 75 to 80 °C.
`O=C(OCCOc1ccc(OCCO)cc1)c1ccc(O)c(Cl)c1` showed a melting point of 87 to 88 °C.
`O=C(NCCCCN1CCC(c2ccccc2)CC1)c1ccc2ccccc2c1` showed a melting point of 143 to 144 °C.
For `CCCCCOc1nc(N)c2ncn(C3CCCCC3)c2n1`, the melting point was 64 to 68 °C.
Compound `COc1ccc(-c2nc(-c3ccc[nH]3)sc2-c2ccc(OC)cc2)cc1` has a melting point of 132 to 134 °C.
For `O=C1c2ccccc2C(=O)N1CCCC#Cc1ccccn1`, the melting point was 127 to 129 °C.
For `Cc1c(C)c2c(c(C)c1OCCCc1ccccc1)C(c1ccc(C(C)C)cc1)C(C)(C)O2` (stereo not given), the melting point was 78 to 80 °C.
Compound `O=C1CC(NC(=O)C2CCCN3C(=O)CCC(NC(=O)c4ccc5c(c4)OCO5)C(=O)N23)C(OCc2ccccc2)O1` (stereo not given) has a melting point of 135 to 140 °C.
`CC(=O)N[C@@H](CSC(=O)c1ccccc1)C(=O)NCCSC(=O)c1ccccc1` gave a melting point of 188 to 190 °C.
`C#CCn1c(C(F)(F)F)c(C(=O)OCC)oc1=O` gave a melting point of 72 °C.
Compound `O=C1NC(=O)C2c3cccc4cccc(c34)C12` (stereo not given) has a melting point of 242 to 246 °C.
In the case of `Cc1ccc(-c2cn3cc(C(F)(F)F)ccc3n2)cc1`, the melting point is reported as 187 to 188 °C.
`Cc1ccc(NC(=O)c2cc(Cl)ccc2NCC2CCN(C3CCSCC3)CC2)nc1` gave a melting point of 173 to 176 °C.
